According to patent US12319726B2, “Method for treating CD40-mediated diseases” (CASE WESTERN RESERVE UNIVERSITY, priority 2008, dated 2025):
Where a SMILES comes first, the peptide text is derived from it. [ ]: non-standard residue; d: D form.

What was measured:
Type in all cases: cell-based
[1] = system: human retinal endothelial cells; assay: ICAM-1 upregulation in human retinal endothelial cells (flow cytometry); conditions: 1 μM, 24 h
Method: FIG. 18 illustrates graphs showing ri CD40-TRAF2,3 blocking peptide inhibits CD40-driven upregulation of ICAM-1. Human retinal endothelial cells were treated with ri control peptide (Ctr P) or ri CD40-TRAF2,3 blocking peptide (T2,3 BP; both at 1 μM) followed by stimulation with CD154 or TNF-α. Expression of ICAM-1 was assessed by flow cytometry at 24 h. Data shown represent Mean±SD. Results are representative of 2 independent experiments. **P<0.01.
(§1) Primary human retinal endothelial cells were obtained as described (9) and cultured in complete medium supplemented with endothelial cell growth supplement from bovine pituitary (15 μg/ml; Sigma Chemical, St Louis, MO) and insulin/transferrin/selenium (Sigma Chemical). Cell identity was confirmed by incorporation of acetylated low-density lipoprotein (>90%). Endothelial cells were used between passages 3 to 6. The human Müller cell line MIO M1 (gift from Dr. Gloria Limb; University College London, UK; >95% vimentin^+, CRALBP^+ and GFAP^−) was also used. Endothelial cells were incubated with multimeric human CD154 to induce CD40 stimulation (obtained from Dr. Richard Kornbluth, Multimeric Biotherapeutics Inc., La Jolla, CA) or with a non-functional CD154 mutant (T147N) as control.
Cells were incubated with anti-ICAM-1 mAb (eBiosciences). After fixation with 1% paraformaldehyde, cells were analyzed using an LSR II (Becton Dickinson). […]

human Müller cells = system: human Müller cells
Excerpt: (§2) Peptide consisted of the TRAF2,3 binding site of CD40 that was made cell permeable by linking them to the TAT47-57 cell penetrating peptide. Peptides were synthesized using D-amino acids following reverse amino acid sequence (ri format). The sequences for the CD40-TRAF2,3 blocking peptide was —NH2-rrrqrrkkrgy ghlteqvhaatn-OH (SEQ ID NO: 49). The TAT47-57 sequence is underlined. The peptide contains a proline (p) to histidine (h) substitution (shown in italics) that enhances affinity to TRAF2. Control (scrambled) peptide consisted of NH2-rrrqrrkkrgy ntqalahtgevh-OH (SEQ ID NO: 50). The blocking peptide was also synthesized with Alexa Fluor 488 conjugated via maleimide coupling to an additional Cys in the N terminus. Peptides were manufactured by Biopeptide Co. (San Diego, CA) and were low in endotoxin and >98% pure by HPLC. Peptides were used at 1 μM in vitro experiments and 1 μg for in vivo studies unless otherwise stated. Peptides were not toxic to human Müller and retinal endothelial cells as assessed by alamarBlue cell viability assay (Invitrogen Corporation).
as §1
(§3) Peptides were tested as described using the mouse endothelial cells mHEVc that expresses a chimera of the extracellular domain of human CD40 and intracytoplasmic domain of mouse CD40 (hmCD40) with either a mutation that prevents recruitment of TRAF2,3 (hmCD40 ΔT2,3) or TRAF6 (hmCD40 ΔT6). These cells were transfected with pGL4.32luc2P/NF-κB-RE/Hygro vector (Promega Corporation, Madison, WI) encoding an NF-κB response element that drives the luciferase reporter gene luc2P (Photinus pyralis). Cells were pre-incubated with peptides for 3 hr. followed by stimulation with human CD154. Luciferase activity was assessed using a Steady-Glo luciferase assay system (Promega Corporation) and a luminometer. The effects of peptides on cell viability were examined using alamarBlue cell viability assay.

[2] = system: human retinal endothelial cells
Excerpt: as §2, §1, §3

CC(C)C[C@@H](NC(=O)[C@@H](Cc1c[nH]cn1)NC(=O)CNC(=O)[C@@H](Cc1ccc(O)cc1)NC(=O)CNC(=O)[C@@H](CCCNC(=N)N)NC(=O)[C@@H](CCCCN)NC(=O)[C@@H](CCCCN)NC(=O)[C@@H](CCCNC(=N)N)NC(=O)[C@@H](CCCNC(=N)N)NC(=O)[C@@H](CCC(N)=O)NC(=O)[C@@H](CCCNC(=N)N)NC(=O)[C@@H](CCCNC(=N)N)NC(=O)[C@H](N)CCCNC(=N)N)C(=O)N[C@@H](C(=O)N[C@H](CCC(=O)O)C(=O)N[C@H](CCC(N)=O)C(=O)N[C@@H](C(=O)N[C@H](Cc1c[nH]cn1)C(=O)N[C@H](C)C(=O)N[C@H](C)C(=O)N[C@@H](C(=O)N[C@H](CC(N)=O)C(=O)O)[C@H](C)O)C(C)C)[C@H](C)O [ri CD40-TRAF2,3 blocking peptide, NH2-rrrqrrkkrgy ghlteqvhaatn-OH] (H-[dR][dR][dR][dQ][dR][dR][dK][dK][dR]G[dY]G[dH][dL][dT][dE][dQ][dV][dH][dA][dA][dT][dN]-OH)
upregulation of ICAM-1 in response to CD154 ([1]; CD154 stimulation, P<0.01): impaired upregulation of ICAM-1 | TNF-α-induced upregulation of ICAM-1 ([1]; TNF-α stimulation): no effect | toxicity (alamarBlue cell viability assay) (human Müller cells): not toxic | toxicity (alamarBlue cell viability assay) [2]: not toxic
